Test results: ChEMBL document CHEMBL1201861, “Genomics of Drug Sensitity in Cancer screening data, Wellcome Trust Sanger Institute”

What was measured:
Experiment in all cases: cells
MIA PaCa-2 = type: functional, cell-based; settings: Homo sapiens;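 further: growth inhibition of MIA PaCa-2 cells, read out with a cell viability assay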
Description: SANGER: Inhibition of human MIA-PaCa-2 cell growth in a cell viability assay.

DBTRG-05MG = type: functional, cell-based; settings: Homo sapiens;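 further: cell viability assay measuring growth inhibition of human DBTRG-05MG cells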
Description: SANGER: Inhibition of human DBTRG-05MG cell growth in a cell viability assay.

OVCAR-5 = type: functional, cell-based; settings: Homo sapiens;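 further: growth inhibition of human OVCAR-5 cells, read out with a cell viability assay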
Description: SANGER: Inhibition of human OVCAR-5 cell growth in a cell viability assay.

NCI-H520 = type: functional, cell-based; settings: Homo sapiens;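 further: growth inhibition of NCI-H520 cells, measured by a cell viability assay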
Description: SANGER: Inhibition of human NCI-H520 cell growth in a cell viability assay.

BFTC-909 = type: functional, cell-based; settings: Homo sapiens
Description: SANGER: Inhibition of human BFTC-909 cell growth in a cell viability assay.

DK-MG = type: functional, cell-based; settings: Homo sapiens;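 further: growth inhibition of DK-MG cells, read out with a cell viability assay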
Description: SANGER: Inhibition of human DK-MG cell growth in a cell viability assay.

NCI-H1563 = type: functional, cell-based; settings: Homo sapiens;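 further: growth inhibition of human NCI-H1563 cells, read out with a cell viability assay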
Description: SANGER: Inhibition of human NCI-H1563 cell growth in a cell viability assay.

PANC-03-27 = type: functional, cell-based; settings: Homo sapiens
Description: SANGER: Inhibition of human PANC-03-27 cell growth in a cell viability assay.

MFH-ino = type: functional, cell-based, Homo sapiens; settings: Homo sapiens, MFH-ino;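 further: growth inhibition of human MFH-ino cells, read out by a cell viability assay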
Description: SANGER: Inhibition of human MFH-ino cell growth in a cell viability assay.

HCT-15 = type: functional, cell-based; settings: Homo sapiens;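 further: cell viability readout, IC50 reflecting suppression of HCT-15 cell growth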
Description: SANGER: Inhibition of human HCT-15 cell growth in a cell viability assay.

NCI-H719 = type: functional, cell-based, Homo sapiens; settings: Homo sapiens, NCI-H719;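 further: growth inhibition of the cultured cell line, read out with a viability assay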
Description: SANGER: Inhibition of human NCI-H719 cell growth in a cell viability assay.

OAW-42 = type: functional, cell-based; settings: Homo sapiens;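 further: growth inhibition of OAW-42 cells, read out with a cell viability assay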
Description: SANGER: Inhibition of human OAW-42 cell growth in a cell viability assay.

CAL-62 = type: functional, cell-based; settings: Homo sapiens;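 further: growth inhibition of CAL-62 cells, read out with a cell viability assay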
Description: SANGER: Inhibition of human CAL-62 cell growth in a cell viability assay.

NCI-H1993 = type: functional, cell-based; settings: Homo sapiens;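 further: growth inhibition of the cancer cell line, assessed with a cell viability assay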
Description: SANGER: Inhibition of human NCI-H1993 cell growth in a cell viability assay.

C32 = type: functional, cell-based; settings: Homo sapiens;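 further: cell viability assay, with IC50 reflecting inhibition of C32 cell growth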
Description: SANGER: Inhibition of human C32 cell growth in a cell viability assay.

U-251 = type: functional, cell-based; settings: Homo sapiens;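 further: growth inhibition of human U-251 cells, read out through a cell viability assay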
Description: SANGER: Inhibition of human U251 cell growth in a cell viability assay.

PA-1 = type: functional, cell-based; settings: Homo sapiens;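 further: IC50 for suppression of PA-1 cell proliferation, determined with a cell viability read-out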
Description: SANGER: Inhibition of human PA-1 cell growth in a cell viability assay.

BT-20 = type: functional, cell-based; settings: Homo sapiens;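 further: cell viability assay measuring suppression of growth in human BT-20 cells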
Description: SANGER: Inhibition of human BT-20 cell growth in a cell viability assay.

SNU-16 = type: functional, cell-based, Homo sapiens; settings: Homo sapiens, SNU-16;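 further: growth inhibition of human SNU-16 cells, determined with a cell viability readout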
Description: SANGER: Inhibition of human NCI-SNU-16 cell growth in a cell viability assay.

Detroit 562 = type: functional, cell-based; settings: Homo sapiens;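 further: growth inhibition of human Detroit 562 cells, read out by a cell viability assay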
Description: SANGER: Inhibition of human Detroit562 cell growth in a cell viability assay.

SK-LU-1 = type: functional, cell-based; settings: Homo sapiens;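 further: cell viability assay measuring growth inhibition of human SK-LU-1 cells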
Description: SANGER: Inhibition of human SK-LU-1 cell growth in a cell viability assay.

SK-MES-1 = type: functional, cell-based; settings: Homo sapiens;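 further: growth inhibition of human SK-MES-1 cells, read out with a cell viability assay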
Description: SANGER: Inhibition of human SK-MES-1 cell growth in a cell viability assay.

RMG-I = type: functional, cell-based; settings: Homo sapiens;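 further: growth inhibition of human RMG-I cells, read out with a cell viability assay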
Description: SANGER: Inhibition of human RMG-I cell growth in a cell viability assay.

ME-180 = type: functional, cell-based; settings: Homo sapiens;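 further: cell viability assay measuring growth inhibition of ME-180 cells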
Description: SANGER: Inhibition of human ME-180 cell growth in a cell viability assay.

HT-1080 = type: functional, cell-based; settings: Homo sapiens
Description: SANGER: Inhibition of human HT-1080 cell growth in a cell viability assay.

SNU-C1 = type: functional, cell-based, Homo sapiens; settings: Homo sapiens, SNU-C1;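 further: growth inhibition of SNU-C1 human cells, read out by a cell viability assay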
Description: SANGER: Inhibition of human SNU-C1 cell growth in a cell viability assay.

NCI-H345 = type: functional, cell-based, Homo sapiens; settings: Homo sapiens, NCI-H345;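 further: growth inhibition of NCI-H345 cells measured with a cell viability assay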
Description: SANGER: Inhibition of human NCI-H345 cell growth in a cell viability assay.

LP-1 = type: functional, cell-based, Homo sapiens; settings: Homo sapiens, LP-1;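 further: growth inhibition of human LP-1 cells, with the read-out taken from a cell viability assay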
Description: SANGER: Inhibition of human LP-1 cell growth in a cell viability assay.

Panc1005 = type: functional, cell-based; settings: Homo sapiens;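 further: growth inhibition of human PANC-10-05 cells, measured by a cell viability assay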
Description: SANGER: Inhibition of human PANC-10-05 cell growth in a cell viability assay.

NCI-H2228 = type: functional, cell-based; settings: Homo sapiens;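 further: growth inhibition of human NCI-H2228 cells, read out by a cell viability assay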
Description: SANGER: Inhibition of human NCI-H2228 cell growth in a cell viability assay.

ARH-77 = type: functional, cell-based, Homo sapiens; settings: Homo sapiens, ARH-77;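 further: growth inhibition of ARH-77 cells, read out by a cell viability assay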
Description: SANGER: Inhibition of human ARH-77 cell growth in a cell viability assay.

Raji = type: functional, cell-based, Homo sapiens; settings: Homo sapiens, Raji;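 further: cell viability assay measuring inhibition of Raji cell growth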
Description: SANGER: Inhibition of human Raji cell growth in a cell viability assay.

SW1573 = type: functional, cell-based; settings: Homo sapiens;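 further: growth inhibition of SW1573 cells, read out with a cell viability assay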
Description: SANGER: Inhibition of human SW1573 cell growth in a cell viability assay.

IST-SL2 = type: functional, cell-based, Homo sapiens; settings: Homo sapiens, IST-SL2;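 further: growth inhibition of human IST-SL2 cells, read out by a cell viability assay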
Description: SANGER: Inhibition of human IST-SL2 cell growth in a cell viability assay.

CMK = type: functional, cell-based, Homo sapiens; settings: Homo sapiens, CMK;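 further: growth inhibition of CMK cells, read out as cell viability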
Description: SANGER: Inhibition of human CMK cell growth in a cell viability assay.

CAL-12T = type: functional, cell-based; settings: Homo sapiens;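 further: growth inhibition of human CAL-12T cells, read out with a cell viability assay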
Description: SANGER: Inhibition of human CAL-12T cell growth in a cell viability assay.

MCF7 = type: functional, cell-based; settings: Homo sapiens;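 further: growth inhibition of human MCF7 cells, read out with a cell viability assay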
Description: SANGER: Inhibition of human MCF7 cell growth in a cell viability assay.

HT-1376 = type: functional, cell-based; settings: Homo sapiens
Description: SANGER: Inhibition of human HT-1376 cell growth in a cell viability assay.

KARPAS-422 = type: functional, cell-based, Homo sapiens; settings: Homo sapiens, KARPAS-422
Description: SANGER: Inhibition of human KARPAS-422 cell growth in a cell viability assay.

HCC1954 = type: functional, cell-based; settings: Homo sapiens;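 further: growth inhibition of human HCC1954 cells, read out with a cell viability assay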
Description: SANGER: Inhibition of human HCC1954 cell growth in a cell viability assay.

L-540 = type: functional, cell-based, Homo sapiens; settings: Homo sapiens, L-540;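 further: growth inhibition of the human L-540 cell line, read out with a viability assay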
Description: SANGER: Inhibition of human L-540 cell growth in a cell viability assay.

KYSE-450 = type: functional, cell-based; settings: Homo sapiens;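 further: cell growth inhibition measured by a viability assay in human KYSE-450 cells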
Description: SANGER: Inhibition of human KYSE-450 cell growth in a cell viability assay.

SW1783 = type: functional, cell-based; settings: Homo sapiens;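 further: cell growth inhibition measured with a viability assay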
Description: SANGER: Inhibition of human SW1783 cell growth in a cell viability assay.

DMS-153 = type: functional, cell-based, Homo sapiens; settings: Homo sapiens, DMS-153
Description: SANGER: Inhibition of human DMS-153 cell growth in a cell viability assay.

UACC-812 = type: functional, cell-based; settings: Homo sapiens
Description: SANGER: Inhibition of human UACC-812 cell growth in a cell viability assay.

MKN-28 = type: functional, cell-based; settings: Homo sapiens;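 further: cell viability assay read-out, IC50 reflects suppression of growth of human MKN-28 cells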
Description: SANGER: Inhibition of human MKN28 cell growth in a cell viability assay.

MONO-MAC-6 = type: functional, cell-based, Homo sapiens; settings: Homo sapiens, MONO-MAC-6;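 further: cell viability assay measuring growth inhibition of human MONO-MAC-6 cells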
Description: SANGER: Inhibition of human MONO-MAC-6 cell growth in a cell viability assay.

NCI-H2009 = type: functional, cell-based; settings: Homo sapiens;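 further: cell viability assay measuring inhibition of NCI-H2009 cell growth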
Description: SANGER: Inhibition of human NCI-H2009 cell growth in a cell viability assay.

KMOE-2 = type: functional, cell-based, Homo sapiens; settings: Homo sapiens, KMOE-2;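 further: growth inhibition of human KMOE-2 cells, read out with a cell viability assay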
Description: SANGER: Inhibition of human KMOE-2 cell growth in a cell viability assay.

5637 = type: functional, cell-based; settings: Homo sapiens
Description: SANGER: Inhibition of human 5637 cell growth in a cell viability assay.

NCI-H460 = type: functional, cell-based; settings: Homo sapiens;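 further: cell viability assay scoring growth inhibition of human NCI-H460 cells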
Description: SANGER: Inhibition of human NCI-H460 cell growth in a cell viability assay.

NCI-H1793 = type: functional, cell-based; settings: Homo sapiens;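 further: cell growth inhibition, read out by a cell viability assay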
Description: SANGER: Inhibition of human NCI-H1793 cell growth in a cell viability assay.

NCI-H187 = type: functional, cell-based, Homo sapiens; settings: Homo sapiens, NCI-H187;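 further: growth inhibition of NCI-H187 cells, read out as cell viability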
Description: SANGER: Inhibition of human NCI-H187 cell growth in a cell viability assay.

SK-MM-2 = type: functional, cell-based, Homo sapiens; settings: Homo sapiens, SK-MM-2;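 further: growth inhibition of human SK-MM-2 cells, read out with a cell viability assay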
Description: SANGER: Inhibition of human SK-MM-2 cell growth in a cell viability assay.

SW-620 = type: functional, cell-based; settings: Homo sapiens;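 further: growth inhibition of human SW-620 cells, measured by a cell viability assay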
Description: SANGER: Inhibition of human SW620 cell growth in a cell viability assay.

KYSE-180 = type: functional, cell-based; settings: Homo sapiens;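 further: growth inhibition of KYSE-180 cells, read out with a cell viability assay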
Description: SANGER: Inhibition of human KYSE-180 cell growth in a cell viability assay.

VMRC-RCZ = type: functional, cell-based; settings: Homo sapiens
Description: SANGER: Inhibition of human VMRC-RCZ cell growth in a cell viability assay.

`COc1ccc(-c2cc3nccn3c(Nc3ncccc3C(N)=O)n2)cc1OC` showed an IC50 (MIA PaCa-2) of 5.4 µM, an IC50 (DBTRG-05MG) of over 8 µM and an IC50 (OVCAR-5) of 7.41 µM. For the same compound, the IC50 (NCI-H520) was over 8 µM, the IC50 (BFTC-909) was over 8 µM and the IC50 (DK-MG) was over 8 µM. For the same compound, the IC50 (NCI-H1563) was over 8 µM, the IC50 (PANC-03-27) was 5.56 µM and the IC50 (MFH-ino) was over 8000 nM. The IC50 (HCT-15) was 6.64 µM, the IC50 (NCI-H719) was over 8 µM and the IC50 (OAW-42) was over 8 µM. For the same compound, the IC50 (CAL-62) was over 8 µM, the IC50 (NCI-H1993) was over 8 µM and the IC50 (C32) was over 8 µM. It also gave an IC50 (U-251) of over 8 µM, an IC50 (PA-1) of 1010 nM and an IC50 (BT-20) of over 8 µM. The IC50 (SNU-16) was over 8 µM, the IC50 (Detroit 562) was 3.88 µM and the IC50 (SK-LU-1) was 2030 nM. It also gave an IC50 (SK-MES-1) of 1.81 µM, an IC50 (RMG-I) of over 8 µM and an IC50 (ME-180) of over 8 µM. The IC50 (HT-1080) was 3.23 µM, the IC50 (SNU-C1) was over 8 µM and the IC50 (NCI-H345) was over 8 µM. For the same compound, the IC50 (LP-1) was 4.02 µM, the IC50 (Panc1005) was 4.15 µM and the IC50 (NCI-H2228) was 4.34 µM. The IC50 (ARH-77) was 3.06 µM, the IC50 (Raji) was 5.51 µM and the IC50 (SW1573) was over 8 µM. It also gave an IC50 (IST-SL2) of 1070 nM, an IC50 (CMK) of 682 nM and an IC50 (CAL-12T) of 496 nM. The IC50 (MCF7) was 1150 nM, the IC50 (HT-1376) was 3.25 µM and the IC50 (KARPAS-422) was 2.5 µM. For the same compound, the IC50 (HCC1954) was over 8 µM, the IC50 (L-540) was over 8 µM and the IC50 (KYSE-450) was 2.32 µM. The IC50 (SW1783) was over 8 µM, the IC50 (DMS-153) was over 8 µM and the IC50 (UACC-812) was over 8 µM. It also gave an IC50 (MKN-28) of 4.49 µM, an IC50 (MONO-MAC-6) of 963 nM and an IC50 (NCI-H2009) of over 8 µM. The IC50 (KMOE-2) was 1980 nM, the IC50 5637 was over 8 µM and the IC50 (NCI-H460) was 2460 nM. It also gave an IC50 (NCI-H1793) of over 8 µM, an IC50 (NCI-H187) of over 8 µM and an IC50 (SK-MM-2) of over 8 µM. For the same compound, the IC50 (SW-620) was 3.31 µM, the IC50 (KYSE-180) was 5.62 µM and the IC50 (VMRC-RCZ) was 5.58 µM.
Compound `OC[C@H](Cc1ccccc1)Nc1nc(Oc2ccc3c(c2)CCC3)nc2c1ncn2Cc1ccc(-c2ccccc2)cc1` has an IC50 (MIA PaCa-2) of 8.88 µM, an IC50 (DBTRG-05MG) of over 10.2 µM and an IC50 (OVCAR-5) of over 10.2 µM. It also gave an IC50 (NCI-H520) of over 10.2 µM, an IC50 (BFTC-909) of over 10.2 µM and an IC50 (DK-MG) of over 10.2 µM. It also gave an IC50 (NCI-H1563) of over 10.2 µM, an IC50 (PANC-03-27) of 7.89 µM and an IC50 (MFH-ino) of 2410 nM. It also gave an IC50 (HCT-15) of 2.49 µM, an IC50 (NCI-H719) of over 10.2 µM and an IC50 (OAW-42) of over 10.2 µM. For the same compound, the IC50 (CAL-62) was 9.44 µM, the IC50 (NCI-H1993) was over 10.2 µM and the IC50 (C32) was over 10.2 µM. For the same compound, the IC50 (U-251) was over 10.2 µM, the IC50 (PA-1) was over 10200 nM and the IC50 (BT-20) was over 10.2 µM. For the same compound, the IC50 (SNU-16) was over 10.2 µM, the IC50 (Detroit 562) was over 10.2 µM and the IC50 (SK-LU-1) was over 10200 nM. It also gave an IC50 (SK-MES-1) of 8.44 µM, an IC50 (RMG-I) of over 10.2 µM and an IC50 (ME-180) of over 10.2 µM. It also gave an IC50 (HT-1080) of 5.13 µM, an IC50 (SNU-C1) of 4.22 µM and an IC50 (NCI-H345) of over 10.2 µM. For the same compound, the IC50 (LP-1) was over 10.2 µM, the IC50 (Panc1005) was over 10.2 µM and the IC50 (NCI-H2228) was over 10.2 µM. For the same compound, the IC50 (ARH-77) was over 10.2 µM, the IC50 (Raji) was over 10.2 µM and the IC50 (SW1573) was over 10.2 µM. It also gave an IC50 (IST-SL2) of over 10200 nM, an IC50 (CMK) of over 10200 nM and an IC50 (CAL-12T) of 2480 nM. For the same compound, the IC50 (MCF7) was 2260 nM, the IC50 (HT-1376) was over 10.2 µM and the IC50 (KARPAS-422) was 4.93 µM. The IC50 (HCC1954) was 10 µM, the IC50 (L-540) was over 10.2 µM and the IC50 (KYSE-450) was 8.47 µM. The IC50 (SW1783) was over 10.2 µM, the IC50 (DMS-153) was over 10.2 µM and the IC50 (UACC-812) was over 10.2 µM. It also gave an IC50 (MKN-28) of 1.73 µM, an IC50 (MONO-MAC-6) of over 10200 nM and an IC50 (NCI-H2009) of over 10.2 µM. It also gave an IC50 (KMOE-2) of over 10200 nM, an IC50 5637 of 4.18 µM and an IC50 (NCI-H460) of 2730 nM. The IC50 (NCI-H1793) was over 10.2 µM, the IC50 (NCI-H187) was over 10.2 µM and the IC50 (SK-MM-2) was over 10.2 µM. It also gave an IC50 (SW-620) of 3.16 µM, an IC50 (KYSE-180) of over 10.2 µM and an IC50 (VMRC-RCZ) of over 10.2 µM.
